Measurements from patent US6368788B1 (priority 1987, dated 2002).
Marks after values point to notes of the source that are not given here.

Key:
[1] = tested on: acute respiratory infections; test: Prophylaxis of respiratory infection in athletes in training, intranasal L-Glu-L-Trp; type: in vivo, human
[2] = Pelvic inflammatory diseases; type: in vivo, human
Procedure: Ninety-six female patients (96) were entered into a trial having a variety of different disorders, i.e., pelvic inflammatory diseases, cervicitis, vaginitis and various tubo-ovarian and adnexal abscesses. Forty-six patients (46) comprised the L-Glu-L-Trp treatment group, and 50 patients comprised a conventional treatment control group. L-Glu-L-Trp was administered daily im at a dose of 100 μg, or 1 μg/kg intranasally, on each of 5 consecutive days. Alternatively, 50 μg of L-Glu-L-Trp was injected intralymphatically on each of 5 consecutive days in conjunction with conventional therapy. […] Normalization of immune parameters was correlated with the observed clinical improvements.
Patients entered into Group 1 (aged 19-50) were separable into clinical subgroups as follows: Subgroup 1A, consisted of 18 patients having […] (body temperature 38-39° C.), and suppurative vaginal discharge after infected abortions performed outside hospitals (average age 24.4±4.2 years); Subgroup 1B, consisted of 16 patients with abdominal pains resulting from chronic nonspecific subfebrile (<38° C.) inflammatory disease of the fallopian tubes (average age 32.2±3.9 years; range of abortions in the patient population 2-8); and, Subgroup 1C consisted of 12 patients with inflammation of the fallopian tubes, (38% resulting from placement of an IUD in the uterus more than 4 years previously). […] Group 2 (control) was constituted of 50 patients (aged 18-44) presenting with analogous symptoms and diseases and the patients in this group were treated with traditional antibiotic therapy.
In all cases L-Glu-L-Trp was delivered im at a dose of 100 μg in 1 ml volume daily on each of five days.
Treatment A: Administered to patients in Group 1A: The course of L-Glu-L-Trp therapy was administered, remnants of fetal tissue were surgically removed, and an additional course of L-Glu-L-Trp therapy was administered.
Treatment B: Administered to patients in Group 1B: L-Glu-L-Trp therapy was administered immediately upon admission into the protocol.
Treatment C: Administered to patients in Group 1C: Infected uterine tissues were surgically removed, abdominal drainage was established, and L-Glu-L-Trp therapy was administered starting 2 days post-operatively.
Patients were evaluated by monitoring the following parameters before, during, and 5-7 days after therapy: i) clinical status of the patient (i.e., body temperature, abdominal pain, and physical examinations) and, ii) laboratory data (i.e., urinalysis, blood chemistry, and blood immunology). The following clinical chemistry values of the patients in Groups 1A, 1B, and 1C were all within the normal range before and after treatment: AST, ALT, creatinine, urea, glucose, protein, chloride, potassium, and sodium. […] Treatment with L-Glu-L-Trp reduced the latter serum markers, i.e., alkaline phosphatase fell to 62.71±5.67 ED/mL and bilirubin to 0.50±0.03 mg %.

[3] = pooled Groups 1A-1C, After L-Glu-L-Trp Therapy

Substance: L-Glu-L-Trp
- IgG % Normal Value ([1]; Controls, After L-Glu-L-Trp): (104%)
- IgM ([1]; Controls, After L-Glu-L-Trp): 1.0 ± 0.02 mg/mL
- IgM % Normal Value ([1]; Controls, After L-Glu-L-Trp): (77%)
- Leukocytes ([1]; Controls, After L-Glu-L-Trp): 5.6 ± 0.4 ×10^9/L
- Leukocytes % Normal Value ([1]; Controls, After L-Glu-L-Trp): (97%)
- Leukocytes, Ratio Post-Treat/Pre-Treat Value ([1]; Controls, After L-Glu-L-Trp): (0.85)
- Lymphocytes ([1]; Controls, After L-Glu-L-Trp): 2.08 ± 0.2 ×10^9/L
- Lymphocytes % Normal Value ([1]; Controls, After L-Glu-L-Trp): (99%)
- Lymphocytes, % ([1]; Controls, After L-Glu-L-Trp): 37.8 ± 2.9%
- Monocytes ([1]; Controls, After L-Glu-L-Trp): 0.58 ± 0.07 ×10^9/L
- Monocytes, % ([1]; Controls, After L-Glu-L-Trp): 10.6 ± 1.2%
- Monocytes, % Normal Value ([1]; Controls, After L-Glu-L-Trp): (88%)
- Neutrophils ([1]; Controls, After L-Glu-L-Trp): 2.67 ± 0.3 ×10^9/L
- Neutrophils, % ([1]; Controls, After L-Glu-L-Trp): 47.5 ± 2.9%
- Neutrophils, % Normal Value ([1]; Controls, After L-Glu-L-Trp): (75%)
- Phagocytosis (yeast) ([1]; Controls, After L-Glu-L-Trp): 75.0 ± 1.7
- Salivary IgM ([1]; Controls, After L-Glu-L-Trp): 0.73 g/L
- Salivary Lysozyme ([1]; Controls, After L-Glu-L-Trp): 63.5 ± 3.0%
- Salivary Secretory IgA ([1]; Controls, After L-Glu-L-Trp): 0.066 ± 0.009 g/L
- Serum Lysozyme ([1]; Controls, After L-Glu-L-Trp): 50.6 ± 1.4 %
- Serum β-Lysin ([1]; Controls, After L-Glu-L-Trp): 46.8 ± 5.4%
- T-Lymphocytes ([1]; Controls, After L-Glu-L-Trp): 1.56 ± 0.1 ×10^9/L
- T-Lymphocytes % Normal Value ([1]; Controls, After L-Glu-L-Trp): (108%)
- T-Lymphocytes (%) ([1]; Controls, After L-Glu-L-Trp): 73.9 ± 1.7%
- T-helper (CD4+) ([1]; Controls, After L-Glu-L-Trp): 1.36 ± 0.2 ×10^9/L
- T-helper (CD4+), % ([1]; Controls, After L-Glu-L-Trp): 65.6 ± 2.0 %
- T-helper (CD4+), % Normal Value ([1]; Controls, After L-Glu-L-Trp): (136%)
- T-suppressor (CD8+) ([1]; Controls, After L-Glu-L-Trp): 0.08 ± 0.05 ×10^9/L
- T-suppressor (CD8+), % ([1]; Controls, After L-Glu-L-Trp): 4.8 ± 1.0%
- T-suppressor (CD8+), % Normal Value ([1]; Controls, After L-Glu-L-Trp): (100%)
- Total Salivary IgA ([1]; Controls, After L-Glu-L-Trp): 0.48 ± 0.1 g/L
- Incidence of infection ([1]; athletes treated, two month period): 24.7%
- Reduction of the rate of upper respiratory infections and illness ([1]; vs controls): 4 fold
- Alkaline phosphatase ([2]; after treatment): 62.71±5.67 ED/mL
- B-lymphocytes, % of normal ([2]; after treatment): ~55%
- Bilirubin ([2]; after treatment): 0.50±0.03 mg %
- Lymphocytes, % of normal ([2]; after treatment): about 81%
- T-lymphocytes, % of normal ([2]; after treatment): about 75%
- Clinical outcome ([2]; in vivo): alleviated pain, reduced fever, and decreased the duration of the medical treatment
- B-Lymphocytes: % of Normal Value [2, 3]: (55%)
- B-Lymphocytes: % of PBL [2, 3]: 11.09 ± 0.87 % of PBL
- B-Lymphocytes: No. [2, 3]: 0.27 ± 0.03* 10^9/L
- Blastogenic Response: % Lym blast w/Con A [2, 3]: 68.70 ± 5.32%
- Blastogenic Response: % Lym blast w/PHA [2, 3]: 37.22 ± 2.81 %
- IgA [2, 3]: 2.61 ± 0.33 g/L
- IgA % Normal Value [2, 3]: (137%)
- IgG [2, 3]: 13.73 ± 0.51 g/L
- IgG % Normal Value [2, 3]: (126%)
- IgM [2, 3]: 2.64 ± 0.36 g/L
- IgM % Normal Value [2, 3]: (176%)
- Lymphocytes: % Normal Value [2, 3]: (81%)
- Lymphocytes: % of PBL [2, 3]: 36.61 ± 1.32 % of PBL
- Lymphocytes: No. [2, 3]: 2.26 ± 0.12* 10^9/L
- Phagocytes: % PBL [2, 3]: 74.78 ± 2.35 % PBL
- T-Lymphocytes: % of Lym [2, 3]: 71.57 ± 1.76 % of Lym
- T-Lymphocytes: % of Normal Value [2, 3]: (75%)
- T-Lymphocytes: No. [2, 3]: 1.67 ± 0.09* 10^9/L
